In US20110263664A1, “Inhibitors of PIM-1 Protein Kinases, Compositions and Methods for Treating Prostate Cancer” (MUSC FOUNDATION FOR RESEARCH DEVELOPMENT, priority 2007, published 2011):

How the values were obtained:
Assay type in all cases: biochemical
PDK1 = PDK1 (Homo sapiens, UniProt O15530); test: Kinase selectivity, Table 5: PDK1; conditions: read-out: selectivity data (inhibition), PDK1
c-TAK1 = c-TAK1 (Homo sapiens, UniProt P27448); test: Kinase selectivity, Table 5: c-TAK1; conditions: read-out: selectivity data (inhibition), c-TAK1
FLT3 = FLT3 (Homo sapiens, UniProt P36888); test: Kinase selectivity, Table 5: FLT3; conditions: read-out: selectivity data (inhibition), FLT3
PLK1 = PLK1 (Homo sapiens, UniProt P53350); test: Kinase selectivity, Table 5: PLK1; conditions: read-out: selectivity data (inhibition), PLK1
MARK1 = MARK1 (Homo sapiens, UniProt Q9P0L2); test: Kinase selectivity, Table 5: MARK1; conditions: read-out: selectivity data (inhibition), MARK1
Sequence of MARK1 (Q9P0L2 whole entry, species assumed): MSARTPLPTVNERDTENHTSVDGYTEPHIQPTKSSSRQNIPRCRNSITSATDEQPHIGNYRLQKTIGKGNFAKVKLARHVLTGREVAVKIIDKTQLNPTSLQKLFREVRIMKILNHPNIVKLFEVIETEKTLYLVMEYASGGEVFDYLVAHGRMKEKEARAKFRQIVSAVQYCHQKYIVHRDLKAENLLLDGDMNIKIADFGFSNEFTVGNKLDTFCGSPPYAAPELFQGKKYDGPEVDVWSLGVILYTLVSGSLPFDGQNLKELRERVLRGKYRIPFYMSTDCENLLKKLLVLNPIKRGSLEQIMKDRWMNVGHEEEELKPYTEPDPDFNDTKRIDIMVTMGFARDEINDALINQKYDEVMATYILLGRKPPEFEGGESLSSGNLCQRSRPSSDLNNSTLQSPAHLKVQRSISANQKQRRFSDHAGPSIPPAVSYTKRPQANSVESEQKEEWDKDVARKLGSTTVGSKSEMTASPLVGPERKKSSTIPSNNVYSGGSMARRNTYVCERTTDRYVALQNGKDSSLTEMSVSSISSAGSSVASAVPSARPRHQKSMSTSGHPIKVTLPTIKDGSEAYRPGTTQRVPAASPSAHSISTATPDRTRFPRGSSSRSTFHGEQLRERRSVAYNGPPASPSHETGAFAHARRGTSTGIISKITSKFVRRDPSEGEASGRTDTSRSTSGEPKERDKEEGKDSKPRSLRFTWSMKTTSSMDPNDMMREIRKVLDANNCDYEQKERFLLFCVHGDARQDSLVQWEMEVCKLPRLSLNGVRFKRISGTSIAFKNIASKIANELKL

RSK1 = RSK1 (Homo sapiens, UniProt Q15418); test: Kinase selectivity, Table 5: RSK1; conditions: read-out: selectivity data (inhibition), RSK1
MSK1 = MSK1 (Homo sapiens, UniProt O75582); test: Kinase selectivity, Table 5: MSK1; conditions: read-out: selectivity data (inhibition), MSK1
Ikkβ = Ikkβ (Homo sapiens, UniProt O14920); test: Kinase selectivity, Table 5: Ikkβ; conditions: read-out: selectivity data (inhibition), Ikkβ
BMX = BMX (Homo sapiens, UniProt P51813); test: Kinase selectivity, Table 5: BMX; conditions: read-out: selectivity data (inhibition), BMX
PRAK = PRAK (Homo sapiens, UniProt Q8IW41); test: Kinase selectivity, Table 5: PRAK; conditions: read-out: selectivity data (inhibition), PRAK
FGFR1 = FGFR1 (Homo sapiens, UniProt P11362); test: Kinase selectivity, Table 5: FGFR1; conditions: read-out: selectivity data (inhibition), FGFR1
ABL = ABL (Homo sapiens, UniProt P00519); test: Kinase selectivity, Table 5: ABL; conditions: read-out: selectivity data (inhibition), ABL
Sequence of ABL (P00519 whole entry, species assumed): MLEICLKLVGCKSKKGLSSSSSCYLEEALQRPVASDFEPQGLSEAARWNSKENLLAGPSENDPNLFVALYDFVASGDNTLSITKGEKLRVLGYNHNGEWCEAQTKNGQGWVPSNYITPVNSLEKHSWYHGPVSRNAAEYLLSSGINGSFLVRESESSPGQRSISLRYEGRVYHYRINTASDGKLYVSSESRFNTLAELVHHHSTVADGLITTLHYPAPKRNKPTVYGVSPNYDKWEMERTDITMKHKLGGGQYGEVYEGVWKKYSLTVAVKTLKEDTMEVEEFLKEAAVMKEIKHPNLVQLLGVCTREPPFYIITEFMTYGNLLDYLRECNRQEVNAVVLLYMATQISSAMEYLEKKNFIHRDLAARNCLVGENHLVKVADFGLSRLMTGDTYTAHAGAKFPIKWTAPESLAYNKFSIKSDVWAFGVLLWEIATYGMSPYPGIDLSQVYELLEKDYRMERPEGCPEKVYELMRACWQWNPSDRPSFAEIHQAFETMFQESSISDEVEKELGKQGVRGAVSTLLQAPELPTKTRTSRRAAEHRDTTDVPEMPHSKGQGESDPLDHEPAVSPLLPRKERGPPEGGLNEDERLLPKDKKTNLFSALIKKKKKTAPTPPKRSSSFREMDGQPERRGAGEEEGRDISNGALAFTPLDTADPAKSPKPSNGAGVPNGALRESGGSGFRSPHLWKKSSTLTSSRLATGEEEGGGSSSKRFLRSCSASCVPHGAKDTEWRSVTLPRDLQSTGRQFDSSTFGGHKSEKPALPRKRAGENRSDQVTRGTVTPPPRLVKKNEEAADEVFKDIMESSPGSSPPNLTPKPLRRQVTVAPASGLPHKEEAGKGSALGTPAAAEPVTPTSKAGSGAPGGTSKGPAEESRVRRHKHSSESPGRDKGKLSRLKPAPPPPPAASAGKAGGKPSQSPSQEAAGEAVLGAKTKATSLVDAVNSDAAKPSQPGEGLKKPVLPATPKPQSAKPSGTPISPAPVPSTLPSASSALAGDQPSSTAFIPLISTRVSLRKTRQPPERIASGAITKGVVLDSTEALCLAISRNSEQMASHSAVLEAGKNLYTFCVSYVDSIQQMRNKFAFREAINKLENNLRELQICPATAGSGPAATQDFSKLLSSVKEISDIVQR

IGF1R = IGF1R (Homo sapiens, UniProt P08069); test: Kinase selectivity, Table 5: IGF1R; conditions: read-out: selectivity data (inhibition), IGF1R
Sequence of IGF1R (P08069 31-1367, species assumed): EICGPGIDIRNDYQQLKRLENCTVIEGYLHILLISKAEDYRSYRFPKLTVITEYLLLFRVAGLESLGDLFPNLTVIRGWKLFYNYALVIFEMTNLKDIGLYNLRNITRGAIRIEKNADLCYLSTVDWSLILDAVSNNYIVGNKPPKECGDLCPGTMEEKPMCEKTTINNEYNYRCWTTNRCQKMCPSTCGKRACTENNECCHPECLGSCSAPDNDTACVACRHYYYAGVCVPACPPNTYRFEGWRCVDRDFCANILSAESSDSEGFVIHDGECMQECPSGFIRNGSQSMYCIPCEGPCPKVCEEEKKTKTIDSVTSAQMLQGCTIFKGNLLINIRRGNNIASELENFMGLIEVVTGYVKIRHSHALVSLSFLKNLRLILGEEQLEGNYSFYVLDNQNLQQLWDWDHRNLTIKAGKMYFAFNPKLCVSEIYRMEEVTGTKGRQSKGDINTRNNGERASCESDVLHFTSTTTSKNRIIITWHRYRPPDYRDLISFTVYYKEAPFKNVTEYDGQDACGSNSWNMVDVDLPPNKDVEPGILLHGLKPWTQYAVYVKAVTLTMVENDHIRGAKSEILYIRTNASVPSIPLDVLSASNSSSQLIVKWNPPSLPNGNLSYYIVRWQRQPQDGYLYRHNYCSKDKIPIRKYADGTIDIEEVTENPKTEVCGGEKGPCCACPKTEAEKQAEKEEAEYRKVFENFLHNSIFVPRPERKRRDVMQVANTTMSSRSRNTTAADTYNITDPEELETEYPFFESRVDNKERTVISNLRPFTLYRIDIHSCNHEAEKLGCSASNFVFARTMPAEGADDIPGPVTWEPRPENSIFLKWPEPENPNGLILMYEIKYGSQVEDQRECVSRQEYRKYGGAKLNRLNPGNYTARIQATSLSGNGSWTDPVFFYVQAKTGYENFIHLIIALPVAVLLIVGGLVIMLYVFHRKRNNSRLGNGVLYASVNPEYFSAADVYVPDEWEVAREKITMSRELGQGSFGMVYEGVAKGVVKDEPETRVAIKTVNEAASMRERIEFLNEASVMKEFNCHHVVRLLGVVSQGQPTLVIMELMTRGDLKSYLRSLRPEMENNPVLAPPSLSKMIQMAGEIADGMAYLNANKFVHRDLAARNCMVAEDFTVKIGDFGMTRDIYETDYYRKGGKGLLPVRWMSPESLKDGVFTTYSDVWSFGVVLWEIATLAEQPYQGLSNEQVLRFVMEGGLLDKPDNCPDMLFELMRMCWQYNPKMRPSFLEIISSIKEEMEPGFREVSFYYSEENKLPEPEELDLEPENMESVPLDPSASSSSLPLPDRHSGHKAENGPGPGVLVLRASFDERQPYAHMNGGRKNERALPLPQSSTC

PIM2 = PIM2 (Homo sapiens, UniProt Q9P1W9); test: Kinase selectivity, Table 5: PIM2; conditions: read-out: selectivity data (inhibition), PIM2
Erk1 = Erk1 (Homo sapiens, UniProt P27361); test: Kinase selectivity, Table 5: Erk1; conditions: read-out: selectivity data (inhibition), Erk1
EGFR = EGFR (Homo sapiens, UniProt P00533); test: Kinase selectivity, Table 5: EGFR; conditions: read-out: selectivity data (inhibition), EGFR
FLT3(D835Y) = FLT3(D835Y) (Homo sapiens, UniProt P36888, D835Y); test: Kinase selectivity, Table 5: FLT3(D835Y); conditions: read-out: selectivity data (inhibition), FLT3(D835Y)
PAK2 = PAK2 (Homo sapiens, UniProt Q13177); test: Kinase selectivity, Table 5: PAK2; conditions: read-out: selectivity data (inhibition), PAK2
Sequence of PAK2 (Q13177 whole entry, species assumed): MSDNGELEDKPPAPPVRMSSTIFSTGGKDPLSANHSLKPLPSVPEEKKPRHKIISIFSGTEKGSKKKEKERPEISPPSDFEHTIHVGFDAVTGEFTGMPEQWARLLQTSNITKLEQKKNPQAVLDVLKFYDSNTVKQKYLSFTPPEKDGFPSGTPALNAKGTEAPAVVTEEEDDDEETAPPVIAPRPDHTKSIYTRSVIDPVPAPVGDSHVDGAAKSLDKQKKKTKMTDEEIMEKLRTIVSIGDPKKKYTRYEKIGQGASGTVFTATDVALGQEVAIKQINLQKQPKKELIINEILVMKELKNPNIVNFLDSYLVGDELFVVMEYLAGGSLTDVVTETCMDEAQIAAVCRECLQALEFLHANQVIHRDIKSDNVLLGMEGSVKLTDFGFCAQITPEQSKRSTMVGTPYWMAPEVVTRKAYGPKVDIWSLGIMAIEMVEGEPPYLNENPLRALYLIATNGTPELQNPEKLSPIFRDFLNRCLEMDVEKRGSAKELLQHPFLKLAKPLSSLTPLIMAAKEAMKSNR

PKGα = PKGα (Homo sapiens, UniProt Q13976); test: Kinase selectivity, Table 5: PKGα; conditions: read-out: selectivity data (inhibition), PKGα
LCK = LCK (Homo sapiens, UniProt P06239); test: Kinase selectivity, Table 5: LCK; conditions: read-out: selectivity data (inhibition), LCK
PDGFRα = PDGFRα (Homo sapiens, UniProt P16234); test: Kinase selectivity, Table 5: PDGFRα; conditions: read-out: selectivity data (inhibition), PDGFRα
CHK2 = CHK2 (Homo sapiens, UniProt O96017); test: Kinase selectivity, Table 5: CHK2; conditions: read-out: selectivity data (inhibition), CHK2
Sequence of CHK2 (O96017 whole entry, species assumed): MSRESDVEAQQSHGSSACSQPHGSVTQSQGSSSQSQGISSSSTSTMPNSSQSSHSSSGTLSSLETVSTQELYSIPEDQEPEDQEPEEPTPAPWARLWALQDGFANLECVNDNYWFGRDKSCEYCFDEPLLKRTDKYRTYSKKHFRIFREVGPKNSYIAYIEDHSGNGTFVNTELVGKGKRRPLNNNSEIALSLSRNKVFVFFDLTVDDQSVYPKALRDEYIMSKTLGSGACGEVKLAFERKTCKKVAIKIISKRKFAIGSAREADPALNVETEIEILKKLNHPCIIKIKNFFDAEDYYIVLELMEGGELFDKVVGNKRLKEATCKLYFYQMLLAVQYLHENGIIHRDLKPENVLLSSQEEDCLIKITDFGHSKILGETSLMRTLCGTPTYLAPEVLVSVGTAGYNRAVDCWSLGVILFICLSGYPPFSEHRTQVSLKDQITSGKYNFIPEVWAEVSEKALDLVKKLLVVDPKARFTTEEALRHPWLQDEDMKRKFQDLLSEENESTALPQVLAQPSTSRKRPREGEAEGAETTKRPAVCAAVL

PKA = PKA (Homo sapiens, UniProt P17612); test: Kinase selectivity, Table 5: PKA; conditions: read-out: selectivity data (inhibition), PKA

Sequence of PDK1 (O15530 whole entry): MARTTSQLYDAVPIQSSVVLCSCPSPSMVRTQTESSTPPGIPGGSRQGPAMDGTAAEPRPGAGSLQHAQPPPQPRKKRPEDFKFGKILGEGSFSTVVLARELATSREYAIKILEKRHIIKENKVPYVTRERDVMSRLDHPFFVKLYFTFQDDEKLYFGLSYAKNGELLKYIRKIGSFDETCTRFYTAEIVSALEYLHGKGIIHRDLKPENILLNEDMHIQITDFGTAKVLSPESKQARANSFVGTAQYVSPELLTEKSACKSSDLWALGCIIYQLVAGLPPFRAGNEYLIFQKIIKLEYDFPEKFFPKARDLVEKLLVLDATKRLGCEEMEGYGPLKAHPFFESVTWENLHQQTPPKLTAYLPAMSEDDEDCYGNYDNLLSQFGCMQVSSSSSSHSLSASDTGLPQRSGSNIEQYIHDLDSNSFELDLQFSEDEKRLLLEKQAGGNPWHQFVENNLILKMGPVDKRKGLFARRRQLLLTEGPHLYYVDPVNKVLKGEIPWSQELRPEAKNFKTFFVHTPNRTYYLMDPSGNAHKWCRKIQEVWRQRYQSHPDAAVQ

CC(C)c1ccc(C=C2SC(=O)NC2=O)cc1 [5-(4-iso-propylbenzylidene)thiazolidine-2,4-dione]
inhibition at 5 µM (PDK1): 1%
inhibition at 5 µM (c-TAK1): 0%
inhibition at 5 µM (FLT3): 1%
inhibition at 5 µM (PLK1): 9%
inhibition at 5 µM (MARK1): -6%
inhibition at 5 µM (RSK1): 5%
inhibition at 5 µM (MSK1): -1%
inhibition at 5 µM (Ikkβ): 10%
inhibition at 5 µM (BMX): 10%
inhibition at 5 µM (PRAK): 4%
inhibition at 5 µM (FGFR1): 1%
inhibition at 5 µM (ABL): 6%
inhibition at 5 µM (IGF1R): -1%
inhibition at 5 µM (PIM2): 62%
inhibition at 5 µM (Erk1): 1%
inhibition at 5 µM (EGFR): -3%
inhibition at 5 µM (FLT3(D835Y)): 9%
inhibition at 5 µM (PAK2): -1%
inhibition at 5 µM (PKGα): 0%
inhibition at 5 µM (LCK): 3%
inhibition at 5 µM (PDGFRα): 6%
inhibition at 5 µM (CHK2): 4%
inhibition at 5 µM (PKA): 3%
